Measurements published in paper PMC8585718 (European journal of medicinal chemistry, 2021).
Where a name gives a salt, the structure may show the parent alone.

Key:
[1] = target: ZVpro (Zika virus NS2B-NS3 protease) (Zika virus, UniProt A0A024B7W1); experiment: Fluorescence-based biochemical assay of ZVpro inhibition; details: for ZVpro IC50: enzyme 1 nM, substrate 10 μM, HEPES pH 7.3
ZIKV-FLR in U87 cells = experiment: Anti-ZIKV activity in U87 cells; assay type: cell-based, Zika virus
[2] = target: DV2pro (NS2B-NS3 protease from DENV serotype-2) (Dengue virus type 2, UniProt P29990); experiment: Fluorescence-based biochemical assay of DV2pro inhibition; details: IC50 vs substrate concentration 0.5 to 50 μM

| SMILES | IC50 [1] [µM] | also measured |
| --- | --- | --- |
| CC(C)(C)c1ccc(-c2ccc3c(ccn3Cc3ccc(-c4ccoc4)cc3)c2)cc1 [Compound 4, 5-(4-(Tert-butyl)phenyl)-1-(4-(furan-3-yl)benzyl)-1H-indole Hydrochloride] | > 50 | ZVpro IC50 [1]: inactive |
| CC(C)(C)c1ccc(-c2ccc3c(ccn3Cc3ccc(-c4ccncc4)cc3)c2)cc1 [Compound 5, 5-(4-(Tert-butyl)phenyl)-1-(4-(pyridin-4-yl)benzyl)-1H-indole Hydrochloride] | > 50 | ZVpro IC50 [1]: inactive |
| CC(C)(C)c1ccc(-c2ccc3cc(C(=O)NCC4CCNCC4)[nH]c3c2)cc1 [Compound 8, 6-(4-(Tert-butyl)phenyl)-N-(piperidin-4-ylmethyl)-1H-indole-2-carboxamide Hydrochloride] | 1.3 |  |
| CC(C)(C)c1ccc(-c2ccc3c(C(=O)NCC4CCNCC4)c[nH]c3n2)cc1 [Compound 9, 6-(4-(tert-butyl)phenyl)-N-(piperidin-4-ylmethyl)-1H-pyrrolo[2,3-b]pyridine-3-carboxamide Hydrochloride] | 9.1 |  |
| CC(C)(C)c1ccc(-c2ccc3[nH]c(C(=O)NCC4CCNCC4)nc3c2)cc1 [Compound 10, 5-(4-(tert-butyl)phenyl)-N-(piperidin-4-ylmethyl)-1H-benzo[d]imidazole-2 carboxamide Hydrochloride] | 3.1 |  |
| CC(C)(C)c1ccc(-c2ccc3sc(C(=O)NC4CCNCC4)cc3c2)cc1 [Compound 11, 5-(4-(Tert-butyl)phenyl)-N-(piperidin-4-yl)benzo[b]thiophene-2-carboxamide Hydrochloride] | 3.2 |  |
| CC(C)(C)c1ccc(-c2ccc3cc(C(=O)NC4CCNCC4)sc3c2)cc1 [Compound 12, 6-(4-(Tert-butyl)phenyl)-N-(piperidin-4-yl)benzo[b]thiophene-2-carboxamide Hydrochloride] | 2.1 |  |
| CC(C)(C)c1ccc(-c2ccc3c(C(=O)NC4CCNCC4)coc3c2)cc1 [Compound 13, 6-(4-(Tert-butyl)phenyl)-N-(piperidin-4-yl)benzofuran-3-carboxamide Hydrochloride] | 5.1 |  |
| N#Cc1ccc(-c2ccc3[nH]cc(C(=O)NC4CCNCC4)c3c2)cc1 [Compound 14, 5-(4-cyanophenyl)-N-(piperidin-4-yl)-1H-indole-3-carboxamide Hydrochloride] | > 50 |  |
| COc1cc(-c2ccc3[nH]cc(C(=O)NC4CCNCC4)c3c2)cc(OC)c1OC [Compound 15, N-(piperidin-4-yl)-5-(3,4,5-trimethoxyphenyl)-1H-indole-3-carboxamide Hydrochloride] | > 50 |  |
| O=C(NCC1CCNCC1)c1c[nH]c2ccc(-c3ccc(F)cc3)cc12 [Compound 16, 5-(4-fluorophenyl)-N-(piperidin-4-ylmethyl)-1H-indole-3-carboxamide Hydrochloride] | > 50 |  |
| O=C(NCC1CCNCC1)c1c[nH]c2ccc(-c3ccc(F)cc3F)cc12 [Compound 17, 5-(2,4-difluorophenyl)-N-(piperidin-4-ylmethyl)-1H-indole-3-carboxamide Hydrochloride] | > 50 |  |
| O=Cc1cccc(-c2ccc3[nH]cc(C(=O)NCC4CCNCC4)c3c2)c1 [Compound 18, 5-(3-formylphenyl)-N-(piperidin-4-ylmethyl)-1H-indole-3-carboxamide Hydrochloride] | > 50 |  |
| COc1cc(-c2ccc3c(C(=O)NCC4CCNCC4)c[nH]c3c2)cc(OC)c1OC [Compound 19, N-(piperidin-4-ylmethyl)-6-(3,4,5-trimethoxyphenyl)-1H-indole-3-carboxamide Hydrochloride] | > 50 |  |
| O=C(NCC1CCNCC1)c1c[nH]c2cc(-c3ccc(F)cc3)ccc12 [Compound 20, 6-(4-fluorophenyl)-N-(piperidin-4-ylmethyl)-1H-indole-3-carboxamide Hydrochloride] | > 50 |  |
| O=C(NCC1CCNCC1)c1c[nH]c2cc(-c3ccccc3F)ccc12 [Compound 21, 6-(2-fluorophenyl)-N-(piperidin-4-ylmethyl)-1H-indole-3-carboxamide Hydrochloride] | > 50 |  |
| NCc1ccc(-c2ccc3c(C(=O)NCC4CCNCC4)c[nH]c3c2)cc1 [Compound 23, 6-(4-(aminomethyl)phenyl)-N-(piperidin-4-ylmethyl)-1H-indole-3-carboxamide Hydrochloride] | > 50 |  |
| O=C(NCC1CCNCC1)c1cc2cc(-c3cccnc3)ccc2[nH]1 [Compound 33, N-(Piperidin-4-ylmethyl)-5-(pyridin-3-yl)-1H-indole-2-carboxamide Hydrochloride] | > 50 |  |
| O=C(NCC1CCNCC1)c1cc2ccc(-c3ccc(OC(F)(F)F)cc3)cc2[nH]1 [Compound 51, N-(Piperidin-4-ylmethyl)-6-(4-(trifluoromethoxy)phenyl)-1H-indole-2-carboxamide Hydrochloride] | 3.2 |  |
| O=C(NCC1CCNCC1)c1cc2ccc(-c3ccoc3)cc2[nH]1 [Compound 66, 6-(Furan-3-yl)-N-(piperidin-4-ylmethyl)-1H-indole-2-carboxamide Hydrochloride] |  | log reduction of ZIKV replication in U87 cells (ZIKV-FLR in U87 cells; at 1 μM): 0.5 log; log reduction of ZIKV replication in U87 cells (ZIKV-FLR in U87 cells; at 10 μM): 2 log; mode of inhibition against ZVpro ([1]; IC50 vs substrate concentration 0.5 to 10 μM): non-competitive; mode of inhibition against DV2pro [2]: non-competitive |
| N#Cc1ccc(-c2ccc3c(C(=O)NC4CCNCC4)coc3c2)cc1 [Compound 69, 6-(4-Cyanophenyl)-N-(piperidin-4-yl)benzofuran-3-carboxamide Hydrochloride] | > 50 |  |
